Data reported in patent publication US8197865B2, “Methods and compositions for modulating hair growth or regrowth” (Access Business Group International LLC, priority 2005, dated 2012).

Legend:
[1] = test system: KGF secretion by human dermal papilla cells; experiment: KGF secretion by human dermal papilla cells, ELISA; type: cell-based; conditions: for Average % KGF Secretion: % control vs untreated control cells, overnight, typically 0.1, 1, 10 μg/ml
Method: (§1) The ability of each of the ingredients in the compositions of the present invention to stimulate or increase secretion of growth factors, such as VEGF and KGF was measured. One of ordinary skill in the art will appreciate that there are numerous methods for measuring the ability of a substance to stimulate secretion of a growth factor. One example of such a method is set forth below and described in Lachgar S., et al., 1998. “Minoxidil upregulates the expression of vascular endothelial growth factor in human hair dermal papilla cells.” Br J. Dermatol. 138:407-11, the entire contents of which are incorporated by reference herein.
(§2) For example, to measure the ability of a compound to stimulate secretion of a growth factor, 100 mg of each test sample in powder form was measured. A 50 mg/ml total extract of the sample was then prepared by sequential addition of DMSO:ethanol:water in a ratio of 5:3:2. One of ordinary skill in the art will understand that other amounts of sample may be used. For example, to prepare a 100 mg sample, 1 mL DMSO, 0.6 ml ethanol, and 0.4 ml water are mixed together.
(§3) This solution is extensively mixed by vortexing and incubating for 10 minutes in a sonic water bath. Each sample ingredient is diluted from the stock concentration of 50 mg/ml to a test concentration (i.e., typically, 0.1, 1, and 10 μg/ml) in tissue culture media.
(§4) The effect of each test sample ingredient may be measured using human dermal papilla cells, which may be purchased from Cell Applications (San Diego, Calif.). In particular, the cells are plated at 3.5×10^4/well in a standard 24 well tissue culture plate using a proprietary medium supplied by the company. Following plating, the cells are incubated overnight. The following day, the media in the wells is aspirated and replaced with fresh media containing the diluted sample ingredient. The cells are again incubated overnight with the samples.
(§5) Growth factors in the cell culture supernatants are assayed using commercially available ELISA kits according to the manufacture's specifications. For example, an ELISA assay may be run to detected either KGF, VEGF, or both. An ELISA kit for detecting KGF may be purchased from R&D Systems (Minneapolis, Minn.). An ELISA kit for detecting VEGF may be purchased from Biosource International (Camarillo, Calif.).
(§6) Data are reported as % control compared to the level of growth factor secreted from untreated control cells.

proteasome = experiment: Proteasome inhibition, fluorescent substrate kit; type: biochemical; conditions: % control vs proteasome activity without inhibitor or test sample; test concentration given as 50 mg/ml
Method: The ability of each of the ingredients in the compositions of the present invention to inhibit proteasome activity was measured. One of ordinary skill in the art will appreciate that there are numerous methods for measuring the ability of a substance to inhibit proteasome activity. One example of such a method is set forth below and described in U.S. Pat. No. 6,410,512, the entire contents of which are incorporated by reference herein.
For example, to measure the ability of a compound to inhibit proteasome activity, 100 mg of each test sample in neat form was measured. A 50 mg/ml total extract of the sample was then prepared by sequential addition of DMSO:ethanol:water in a ratio of 5:3:2. One of ordinary skill in the art will understand that other amounts of sample may be used. For example, to prepare a 100 mg sample, 1 mL DMSO, 0.6 ml ethanol, and 0.4 ml water are mixed together.
This solution is extensively mixed by vortexing and incubating for 10 minutes in a sonic water bath. Each sample ingredient is diluted from the stock concentration to a test concentration of 50 mg/ml in proteasome reaction buffer media.
Inhibition of proteasome activity may be assayed using a proteasome kit that is commercially available, for example from Boston Biochem (Boston, Mass.). Test sample ingredients are first added to the proteasome provided with the kit. The fluorescent proteasome substrate is then added and cleavage of the substrate by the proteasome is monitored using a fluorescence plate reader. Data are expressed as % control compared to proteasome activity without any inhibitor or test sample added.
as §6

[2] = test system: DHT synthesis in DU-145 cells; experiment: Dihydrotestosterone (DHT) synthesis by human prostate cells (DU-145), DHT ELISA; type: cell-based; conditions: for Average % DHT Synthesis Observed: % control vs DHT in untreated control cells, testosterone 1 nM, 6 hours, test concentrations typically 0.1, 1, 10 μg/ml
[3] = test system: VEGF secretion by human dermal papilla cells; experiment: VEGF secretion by human dermal papilla cells, ELISA; type: cell-based; conditions: for Average % VEGF Secretion: % control vs untreated control cells, overnight, typically 0.1, 1, 10 μg/ml
Method: as §1, §2, §3, §4, §5, §6

Molecule	Average % KGF Secretion [1]	Average % Proteasome Activity (proteasome)	Effect on DHT synthesis, in words (summary of Table 2) [2]	Average % DHT Synthesis Observed [2]	Average % VEGF Secretion [3]	Effect on KGF secretion, in words (summary of Table 3) [1]	Effect on VEGF secretion, in words (summary of Table 3) [3]
disodium lauraminodipropionate tocopheryl phosphate [Vital ET ™]	103.0%	68.3%	most potent inhibitors of DHT synthesis	72.1%	107.9%		
O=C(CCCCc1ccc2c(c1)OCO2)N1CCCCC1 [Cosmoperine ™, tetrahydropiperine]	75.1%	67.6%		130.1%	172.5%	most potent inhibitors of KGF secretion	
O=c1cc(-c2ccc(O)c(O)c2)oc2cc(O)cc(O)c12 [Luteolin]	147.8%	76.4%		96.2%	123.2%		
O=c1cc(-c2ccc(O)c(-c3c(O)cc(O)c4c(=O)cc(-c5ccc(O)cc5)oc34)c2)oc2cc(O)cc(O)c12 [Amentoflavone]	209.5%			163.9%	186.2%		
C[C@@H]1O[C@@H](O[C@H]2C(=O)c3c(O)cc(O)cc3O[C@@H]2c2ccc(O)c(O)c2)[C@H](O)[C@H](O)[C@H]1O [Astilbin]	85.4%	47.7%		78.0%	122.9%	most potent inhibitors of KGF secretion	
CC1=C(/C=C/C(C)=C/C=C/C(C)=C/C=C/C=C(C)/C=C/C=C(C)/C=C/C2=C(C)C(=O)[C@@H](O)CC2(C)C)C(C)(C)C[C@H](O)C1=O [Astaxanthin]	327.1%	114.0%		103.9%	249.4%		most potent stimulators of VEGF
